These compounds were tested on TFEB (assay: TFEB Nuclear Translocation Assay). Settings: read-out: EC50 of TFEB activation.
Assay type: cell-based

EC50	SMILES
≤ 1 µM	CC(C)S(=O)(=O)c1ccc(S(=O)(=O)n2nc(N3CCC(F)(F)CC34CC4)c3c(Cl)cccc32)cc1 [Compound 53, 4-chloro-3-(7,7-difluoro-4-azaspiro [2.5]octan-4-yl)-1-(4-isopropylsulfonylphenyl) sulfonyl-indazole]
≤ 1 µM	CC(C)S(=O)(=O)c1ccc(S(=O)(=O)n2nc(N3CCC(Cl)(Cl)CC34CC4)c3c(Cl)cccc32)cc1 [Compound 54, 4-chloro-3-(7,7-dichloro-4-azaspiro [2.5]octan-4-yl)-1-(4-isopropylsulfonylphenyl) sulfonyl-indazole]
≤ 1 µM	CC(C)S(=O)(=O)c1ccc(S(=O)(=O)n2nc(N3CCN(C(=O)C(F)(F)F)CC34CC4)c3c(Cl)cccc32)cc1 [Compound 55, 1-[4-[4-chloro-1-(4-isopropylsulfonylphenyl)sulfonyl-indazol-3-yl]-4,7-diazaspiro [2.5]octan-7-yl]-2,2,2-trifluoro-ethanone]
≤ 1 µM	CC(C)S(=O)(=O)c1ccc(S(=O)(=O)n2nc(N3CCN(C(=O)C4CC4)CC34CC4)c3c(Cl)cccc32)cc1 [Compound 57, [4-[4-chloro-1-(4-isopropylsulfonylphenyl)sulfonyl-indazol-3-yl]-4,7-diazaspiro[2.5]octan-7-yl]-cyclopropyl-methanone]
≤ 1 µM	CC(C)S(=N)(=O)c1ccc(S(=O)(=O)n2nc(N3CCN(c4ncc(F)cn4)CC34CC4)c3c(Cl)cccc32)cc1 (stereo not drawn) [Compound 58, [4-[4-chloro-3-[7-(5-fluoropyrimidin-2-yl)-4,7-diazaspiro [2.5]octan-4-yl]indazol-1-yl]sulfonylphenyl]-imino-isopropyl-oxo-λ6-sulfane]

The remaining lines, values behind:

SMILES	EC50
CC(C)S(=O)(=O)c1ccc(S(=O)(=O)n2nc(N3CCN(c4ccc(Cl)cn4)CC34CC4)c3c(Cl)cccc32)s1 [Compound 47, 4-chloro-3-[7-(5-chloro-2-pyridyl)-4,7-diazaspiro[2.5]octan-4-yl]-1-[(5-isopropylsulfonyl-2-thienyl)sulfonyl]indazole]	≤ 1 µM
CC(C)(C)S(=O)(=O)c1ccc(S(=O)(=O)n2nc(N3CCN(c4ccc(F)cn4)CC34CC4)c3c(Cl)cccc32)s1 [Compound 48, 1-[(5-tert-butylsulfonyl-2-thienyl)sulfonyl]-4-chloro-3-[7-(5-fluoro-2-pyridyl)-4,7-diazaspiro [2.5]octan-4-yl]indazole]	≤ 1 µM
CC(C)(C)S(=O)(=O)c1ccc(S(=O)(=O)n2nc(N3CCN(c4ncc(F)cn4)CC34CC4)c3c(Cl)cccc32)s1 [Compound 49, 1-((5-(tert-butylsulfonyl)thiophen-2-yl)sulfonyl)-4-chloro-3-(7-(5-fluoropyrimidin-2-yl)-4,7-diazaspiro [2.5]octan-4-yl)-1H-indazole]	≤ 1 µM
CC(C)S(=O)(=O)c1ccc(S(=O)(=O)n2nc(N3CCN(c4ncc(F)cn4)CC3C3CC3)c3c(Cl)cccc32)cc1 (stereo not drawn) [Compound 50, 4-chloro-3-(2-cyclopropyl-4-(5-fluoropyrimidin-2-yl)piperazin-1-yl)-1-((4-(isopropylsulfonyl)phenyl)sulfonyl)-1H-indazole]	≤ 1 µM
CC(C)S(=O)(=O)c1ccc(S(=O)(=O)n2nc(N3CCN(c4ncc(F)cn4)CC3C3CC3)c3c(Cl)cc(F)cc32)cc1 (stereo not drawn) [Compound 51, 4-chloro-3-(2-cyclopropyl-4-(5-fluoropyrimidin-2-yl)piperazin-1-yl)-6-fluoro-1-((4-(isopropylsulfonyl)phenyl)sulfonyl)-1H-indazole]	≤ 1 µM
O=S(=O)(c1ccc(S(=O)(=O)C(F)(F)F)cc1)n1nc(N2CCN(c3ncc(F)cn3)CC23CC3)c2c(Cl)cccc21 [Compound 52, 4-chloro-3-(7-(5-fluoropyrimidin-2-yl)-4,7-diazaspiro [2.5]octan-4-yl)-1-((4-((trifluoromethyl)sulfonyl)phenyl)sulfonyl)-1H-indazole]	≤ 1 µM
CC(=O)N1CCN(c2nn(S(=O)(=O)c3ccc(S(=O)(=O)C(C)C)cc3)c3cccc(Cl)c23)C2(CC2)C1 [Compound 56, 1-[4-[4-chloro-1-(4-isopropylsulfonylphenyl)sulfonyl-indazol-3-yl]-4,7-diazaspiro[2.5]octan-7-yl]ethanone]	≤ 1 µM

Source: US20250333406A1, “SULFONYL CYCLIC DERIVATIVES, AND COMPOSITIONS AND METHODS THEREOF” (Lysoway Therapeutics, Inc., priority 2023, published 2025)
